Publication PMC6515479, “An Investigation on Glucuronidation Metabolite Identification, Isozyme Contribution, and Species Differences of GL-V9 In Vitro and In Vivo” (Molecules, 2019)

Tests used:
Format in all cases: in vitro ADME
[1] = target: T1, rUGT1A10 (Homo sapiens, UniProt Q9HAW8); test: UGT phenotyping of GL-V9 glucuronidation, rUGT1A10; conditions: GL-V9 0.5, 1, 5 μM, 37 °C, 1 h
T1 construct: purchased Corning (Woburn, MA, USA)
T1 sequence (Q9HAW8 26-530): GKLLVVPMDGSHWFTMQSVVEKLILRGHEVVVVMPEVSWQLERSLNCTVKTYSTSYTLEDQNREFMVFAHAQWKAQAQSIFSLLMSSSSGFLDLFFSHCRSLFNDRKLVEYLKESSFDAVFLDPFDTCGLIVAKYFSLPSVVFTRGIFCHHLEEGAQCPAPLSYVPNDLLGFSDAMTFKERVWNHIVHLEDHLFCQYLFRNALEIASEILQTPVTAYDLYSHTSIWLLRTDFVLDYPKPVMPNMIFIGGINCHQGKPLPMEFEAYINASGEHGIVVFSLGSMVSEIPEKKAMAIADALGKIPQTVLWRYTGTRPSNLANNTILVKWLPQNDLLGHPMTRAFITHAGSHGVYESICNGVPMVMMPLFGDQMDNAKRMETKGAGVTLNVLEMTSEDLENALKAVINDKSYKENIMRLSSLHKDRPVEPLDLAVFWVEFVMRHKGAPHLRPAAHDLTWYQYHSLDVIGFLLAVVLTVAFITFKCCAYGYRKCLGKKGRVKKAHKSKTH
Experimental: (§1) The composition of the incubation system (200 μL) contained liver microsomes of different species (0.1 mg protein/mL), 5 mM saccharolactone (D-saccharic acid 1,4-lactone monohydrate), 10 mM MgCl2, alamethicin (50 μg/mg protein), Tris-HCl buffer (50 mM, pH 7.4) and GL-V9 (1 μM). After 5 min of preincubation at 37 °C, UDPGA (5 mM) was added to initiate the phase II reaction. Control incubation samples were performed without UDPGA or without substrates (GL-V9). The reaction was terminated by addition of ice-cold methanol (three volumes) after incubation for 1 h at 37 °C. Samples were vortexed, centrifuged at 21,500× g for 10 min and then stored at 4 °C until HPLC-UV-TripleTOF analysis. To confirm that these metabolites are conjugates resulting from glucuronidation reaction, enzymatic hydrolysis of samples was processed. β-glucuronidase (100 KU, Sigma) was added and the hydrolysis was performed overnight at 37 °C. The control samples were carried out without β-glucuronidase under the same condition.
(§2) Twelve human recombinant UGT isoforms (rUGT1A1, rUGT1A3, rUGT1A4, rUGT1A6, rUGT1A7, rUGT1A8, rUGT1A9, rUGT1A10, rUGT2B4, rUGT2B7, rUGT2B15, and rUGT2B17) were employed to identify the main UGT enzyme(s) responsible for glucuronidation of GL-V9 under mixture conditions as described in Section 4.3. […]

[2] = target: T2, rUGT2B17 (Homo sapiens, UniProt O75795); test: UGT phenotyping of GL-V9 glucuronidation, rUGT2B17; conditions: GL-V9 0.5, 1, 5 μM, 37 °C, 1 h
T2 construct: purchased Corning (Woburn, MA, USA)
T2 sequence (O75795 24-530): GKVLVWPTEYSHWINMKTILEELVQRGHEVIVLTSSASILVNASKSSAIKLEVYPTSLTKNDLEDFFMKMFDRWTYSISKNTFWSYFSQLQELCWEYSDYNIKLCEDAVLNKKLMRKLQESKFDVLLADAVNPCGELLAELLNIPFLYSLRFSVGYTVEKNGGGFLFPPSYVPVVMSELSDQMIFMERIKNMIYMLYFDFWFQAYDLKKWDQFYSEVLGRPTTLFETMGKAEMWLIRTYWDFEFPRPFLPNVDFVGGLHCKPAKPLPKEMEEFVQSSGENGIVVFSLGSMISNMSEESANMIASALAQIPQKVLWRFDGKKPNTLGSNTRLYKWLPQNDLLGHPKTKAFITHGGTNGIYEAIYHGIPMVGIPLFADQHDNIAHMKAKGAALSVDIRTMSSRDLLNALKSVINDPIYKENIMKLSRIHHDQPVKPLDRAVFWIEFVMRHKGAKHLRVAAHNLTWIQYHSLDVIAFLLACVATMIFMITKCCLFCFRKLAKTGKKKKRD
Experimental: as §1, §2

[3] = Enzyme kinetics of GL-V9 glucuronidation in monkey liver microsomes (MLMs); conditions: monkey, liver microsomes, pH 7.4; formation of 5-O-glucuronide GL-V9; MLMs, protein 0.1 mg/mL; mean ± SD, n = 3
Experimental: as §1
(§3) Enzyme kinetics experiments were carried out in triplicate among five different species, including monkey, beagle dog, rat, mouse, and human. The reaction system and operations are as same as described in Section 4.3. The solutions of GL-V9 were selected over a range of concentrations (0.05, 0.2, 0.5, 1, 2, 5, 10, 20 μM). According to the different metabolic capacity, the protein concentration of liver microsomes of different species is different as shown in Table 1.
(§4) Rates of the glucuronidation of GL-V9 were described as amounts of glucuronides formed per minute per milligram (pmol/min/mg). The calculation model of kinetic parameters was selected by the profile of Eadie-Hofstee plots. It often includes three possibilities: (1) the Eadie-Hofstee plot was linear, the formation rates of glucuronides (V) at different substrate concentrations (C) were fit to the standard Michaelis-Menten calculation of GraphPad Prism (version 6.02, GraphPad Software Inc., Guildford, Surrey, UK); (2) the Eadie-Hofstee plot was atypical kinetic-autoactivation, the rates and concentration were fit with the allosteric sigmoidal function of GraphPad Prism; (3) the Eadie-Hofstee plot was atypical kinetic-biphasic, the rates and concentration were fit with the […] of GraphPad Prism.

[4] = test system: monkey liver microsomes (MLMs); test: as above
Experimental: as §1, §3, §4

SMILES: COc1c(OCCCCN2CCCC2)cc(O)c2c(=O)cc(-c3ccccc3)oc12 [GL-V9]
- Metabolism rate (glucuronidation) [1]: too low to be biologically relevant
- Catalytic activity in the production of 5-O-glucuronide GL-V9 [2]: did not show apparent catalytic activity
- Km at 1 h [3]: 11.2 ± 0.47 µM
- Clint in MLMs relative to DLMs ([4]; MLMs versus DLMs): approximately 9 fold
- Glucuronidation rate in MLMs relative to DLMs ([4]; MLMs versus DLMs): > 8 fold
- Vmax ([4]; formation of 5-O-glucuronide GL-V9, MLMs, protein 0.1 mg/mL, mean ± SD, n = 3): 182.5 ± 4.92 pmol/min/mg
